Experimental data from patent US20220256852A1, “NOVEL CRYSTALLINE FORM OF PYROXASULFONE, METHODS FOR ITS PREPARATION AND USE OF THE SAME” (ROTAM AGROCHEM INTERNATIONAL COMPANY LIMITED, priority 2021, published 2022).

Assays:
[1] = format: physicochemical
Method: Samples (S1, S2 and S3) were stored at 54° C. for 1 month, 3 months and 6 months. The procedures were followed according to CIPAC MT 46.3. The concentration of Pyroxasulfone was measured at the end of each storage time by HPLC. The aggregation was measured by observation. The original concentration of Pyroxasulfone in each formulation was 40%.

[2] = Dispersibility test of water dispersible granules (WG); format: physicochemical; settings: summary of Table 4
Method: 0.3077 g of calcium carbonate and 0.092 g of magnesium oxide were dissolved in a small amount of diluted hydrochloric acid, then heated and boiled on a sand bath to remove hydrochloric acid. Distilled water was added to the remaining solution to make 10 liters in total. Subsequently, 100 ml of the obtained solution was put into a 100 ml stoppered measuring cylinder, and kept at 20° C. in a temperature-controlled room. 100 mg samples of S4 to S6 were put into the measuring cylinder, and left to stand for 30 seconds. The measuring cylinder was then turned upside down repeatedly at a rate of once a second, whereupon the turning-down frequency (number of turns) needed for disintegrating the whole water-dispersible material was counted.

For Cn1nc(C(F)(F)F)c(CS(=O)(=O)C2=NOC(C)(C)C2)c1OC(F)F [3-[[[5-(difluoromethoxy)-1-methyl-3-(trifluoromethyl)-1H-pyrazol-4-yl]methyl]sulfonyl]-4,5-dihydro-5,5-dimethylisoxazole], the “storage stability compared with amorphous Pyroxasulfone” value [1] was “significantly higher storage stability”, the “tendency to aggregate during storage” value ([1]; summary of Table 5) was “significantly lower tendency to aggregate” and the “dispersibility compared with amorphous Pyroxasulfone” value [2] was “significantly higher dispersibility”.
